Reference: the NIST ThermoML archive (doi:10.1021/je500320c)

Experiment: an = ratio of the nth substance listed
Details: 101 kPa, Liquid, a1 = 2

NC(N)=O [urea] + C[N+](C)(C)CCO.[Cl-]
Details	mass density [kg/m3]	viscosity [mPa·s]
298.15 K	1197.9	1571
303.15 K	1195.2	953.7
308.15 K	1192.7	608.4
313.15 K	1190.1	403.2
318.15 K	1187.5	277.2
323.15 K	1184.9	195.9
328.15 K	1182.3	143.6
333.15 K	1179.7	107.7
